Like-named read-outs stand apart in the source and are kept apart here.
How the values were obtained:
[1] = target: ErbB2 insYVMA (HER2-YVMA, SEQ ID NO: 2) (Homo sapiens, UniProt P04626, INS775YVMA/P1170A); assay: biochemical; details: ErbB2 insYVMA enzyme assay
ErbB2 WT = ErbB2 WT (Homo sapiens (Human), UniProt P04626); assay: ErbB enzyme assay (CisBio HTRF KinEASE-TK), Assay 2; format: biochemical
Outline: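 ErbB2 phosphorylates 250 nM biotin-TK substrate at 1 mM ATP in 25 mM HEPES pH 7.4, 10 mM MgCl2, 0.01% Triton X-100 and 2% DMSO, for 30 min at 22 °C. Product is detected by HTRF with Sa-XL665 and TK-Ab-Cryptate. Percent of control is set by DMSO-only wells and pre-quenched wells.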

EGFR = EGFR (Homo sapiens (Human), UniProt P00533); assay: ErbB enzyme assay (CisBio HTRF KinEASE-TK), Assay 3; format: biochemical
Outline: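 Inhibition is measured as reduced peptide phosphorylation by HTRF KinEASE-TK at 1 mM ATP and 250 nM substrate, 30 min at 22 °C. Values are IC50s from a 4-parameter logistic fit.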

[2] = target: ErbB2 with Exon 20 YVMA insertion (HER2-YVMA) (Homo sapiens (Human), UniProt P04626, INS775YVMA); assay: Cellular phosphorylation assay, constitutive ErbB2 phosphorylation (Y1196) in engineered NIH 3T3 cells, Assay 4; format: cell-based
Outline: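 Engineered NIH 3T3 cells expressing HER2-YVMA treated with compounds 1 h at 37 °C, then formaldehyde-fixed and methanol-permeabilized. pErbB2 Y1196 detected by in-cell infrared immunofluorescence, normalized to GAPDH. IC50 from the normalized curves.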

EGFR wild type (EGFR WT) = EGFR wild type (EGFR WT) (Homo sapiens (Human), UniProt P00533); assay: Cellular phosphorylation assay, EGF-stimulated EGFR phosphorylation in engineered NIH 3T3 cells, Phospho-EGFR DuoSet IC ELISA, Assay 5; format: cell-based
Description: NIH 3T3 cells were engineered to express EGFR wild type (EGFR WT; Assay 5, no footnote) with constructs obtained from GenScript and grown in DMEM supplemented with 10% fetal bovine serum and 15 μg/ml blasticidin. Cells were plated in 96-well plates at 20,000 cells/well and allowed to attach overnight at 37° C./5% CO2. Serially diluted compounds were added to the plates for 1 hour at 37° C./5% CO2. EGFR WT cells were stimulated with 100 ng/ml rEGF for an additional 10 minutes at 37° C./5% CO2. After compound incubation, medium was removed from the cells, which were then lysed in 100 μL/well lysis buffer according to the manufacturer's protocol (R&D Systems, DYC1095, Human Phospho-EGFR DuoSet IC ELISA). Same protocol was followed to determine the total levels of phospho-EGFR by measuring the optical density of each well using a VersaMax microplate reader. Curves were then generated and IC50 values calculated.

Chain of EGFR (P00533 25-1210): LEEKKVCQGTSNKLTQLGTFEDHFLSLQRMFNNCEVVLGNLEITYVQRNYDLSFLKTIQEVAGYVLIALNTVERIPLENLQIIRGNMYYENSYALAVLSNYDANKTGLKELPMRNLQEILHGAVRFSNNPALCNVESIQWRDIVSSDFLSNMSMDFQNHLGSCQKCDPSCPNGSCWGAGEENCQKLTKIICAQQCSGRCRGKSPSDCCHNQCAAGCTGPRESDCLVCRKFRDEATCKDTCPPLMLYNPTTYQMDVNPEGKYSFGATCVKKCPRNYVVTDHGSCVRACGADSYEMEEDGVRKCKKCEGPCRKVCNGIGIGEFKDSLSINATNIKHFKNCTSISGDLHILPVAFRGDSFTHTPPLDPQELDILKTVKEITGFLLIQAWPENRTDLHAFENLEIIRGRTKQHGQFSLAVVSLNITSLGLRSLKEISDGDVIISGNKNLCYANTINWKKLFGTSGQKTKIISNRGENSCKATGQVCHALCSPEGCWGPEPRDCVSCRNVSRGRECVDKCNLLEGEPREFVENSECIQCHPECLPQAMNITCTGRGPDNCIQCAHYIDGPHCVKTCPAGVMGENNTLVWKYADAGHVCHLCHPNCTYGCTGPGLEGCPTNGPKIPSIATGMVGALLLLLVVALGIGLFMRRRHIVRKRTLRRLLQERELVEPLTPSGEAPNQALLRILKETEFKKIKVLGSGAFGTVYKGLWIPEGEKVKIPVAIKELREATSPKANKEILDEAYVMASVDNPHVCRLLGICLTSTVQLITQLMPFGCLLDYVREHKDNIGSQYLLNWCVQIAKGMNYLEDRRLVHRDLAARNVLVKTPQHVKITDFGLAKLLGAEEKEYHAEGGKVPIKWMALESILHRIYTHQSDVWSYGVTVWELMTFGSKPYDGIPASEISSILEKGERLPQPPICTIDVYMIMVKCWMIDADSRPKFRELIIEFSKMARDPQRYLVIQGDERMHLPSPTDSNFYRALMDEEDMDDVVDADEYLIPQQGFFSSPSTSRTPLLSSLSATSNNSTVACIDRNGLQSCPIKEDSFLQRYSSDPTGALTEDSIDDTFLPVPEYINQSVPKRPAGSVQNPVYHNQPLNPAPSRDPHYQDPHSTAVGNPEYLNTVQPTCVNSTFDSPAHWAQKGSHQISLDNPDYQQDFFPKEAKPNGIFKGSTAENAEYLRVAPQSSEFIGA
Chain of EGFR wild type (EGFR WT) (P00533 25-1210): as above
Chain of ErbB2 WT (P04626 23-1255): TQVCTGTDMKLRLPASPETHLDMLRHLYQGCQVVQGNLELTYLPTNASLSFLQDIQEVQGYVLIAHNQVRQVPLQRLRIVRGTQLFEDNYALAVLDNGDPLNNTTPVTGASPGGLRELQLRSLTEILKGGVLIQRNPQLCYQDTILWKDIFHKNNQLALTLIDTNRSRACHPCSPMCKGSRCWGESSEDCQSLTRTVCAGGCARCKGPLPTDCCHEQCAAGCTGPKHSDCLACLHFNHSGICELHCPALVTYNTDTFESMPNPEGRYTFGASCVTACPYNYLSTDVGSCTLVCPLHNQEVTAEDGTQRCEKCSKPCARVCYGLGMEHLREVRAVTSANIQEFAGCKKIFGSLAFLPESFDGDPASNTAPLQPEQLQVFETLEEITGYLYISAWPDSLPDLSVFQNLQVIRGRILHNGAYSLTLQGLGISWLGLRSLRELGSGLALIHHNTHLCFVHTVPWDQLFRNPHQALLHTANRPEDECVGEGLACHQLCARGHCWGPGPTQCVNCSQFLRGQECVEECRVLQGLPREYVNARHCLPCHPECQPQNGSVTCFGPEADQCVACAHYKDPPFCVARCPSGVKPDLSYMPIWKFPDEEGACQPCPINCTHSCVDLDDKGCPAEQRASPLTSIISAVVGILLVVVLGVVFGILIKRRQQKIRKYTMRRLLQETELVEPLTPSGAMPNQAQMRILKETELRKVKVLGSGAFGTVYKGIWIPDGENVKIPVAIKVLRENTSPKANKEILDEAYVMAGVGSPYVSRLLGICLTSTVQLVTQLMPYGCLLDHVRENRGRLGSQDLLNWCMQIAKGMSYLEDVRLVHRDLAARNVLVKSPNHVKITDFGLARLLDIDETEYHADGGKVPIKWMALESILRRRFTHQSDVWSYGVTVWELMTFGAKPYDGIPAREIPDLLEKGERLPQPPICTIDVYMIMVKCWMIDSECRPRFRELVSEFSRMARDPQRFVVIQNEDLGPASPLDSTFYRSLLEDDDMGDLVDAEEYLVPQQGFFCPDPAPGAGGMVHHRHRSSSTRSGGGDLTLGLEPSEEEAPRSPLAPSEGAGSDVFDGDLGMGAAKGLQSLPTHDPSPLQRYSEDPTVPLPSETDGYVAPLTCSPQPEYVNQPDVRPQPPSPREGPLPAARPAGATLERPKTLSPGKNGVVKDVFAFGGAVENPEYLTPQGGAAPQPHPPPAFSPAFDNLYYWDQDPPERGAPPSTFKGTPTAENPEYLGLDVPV
Chain of ErbB2 insYVMA (HER2-YVMA, SEQ ID NO: 2) (P04626 with tags, fused parts or gaps INS775YVMA/P1170A limits assumed): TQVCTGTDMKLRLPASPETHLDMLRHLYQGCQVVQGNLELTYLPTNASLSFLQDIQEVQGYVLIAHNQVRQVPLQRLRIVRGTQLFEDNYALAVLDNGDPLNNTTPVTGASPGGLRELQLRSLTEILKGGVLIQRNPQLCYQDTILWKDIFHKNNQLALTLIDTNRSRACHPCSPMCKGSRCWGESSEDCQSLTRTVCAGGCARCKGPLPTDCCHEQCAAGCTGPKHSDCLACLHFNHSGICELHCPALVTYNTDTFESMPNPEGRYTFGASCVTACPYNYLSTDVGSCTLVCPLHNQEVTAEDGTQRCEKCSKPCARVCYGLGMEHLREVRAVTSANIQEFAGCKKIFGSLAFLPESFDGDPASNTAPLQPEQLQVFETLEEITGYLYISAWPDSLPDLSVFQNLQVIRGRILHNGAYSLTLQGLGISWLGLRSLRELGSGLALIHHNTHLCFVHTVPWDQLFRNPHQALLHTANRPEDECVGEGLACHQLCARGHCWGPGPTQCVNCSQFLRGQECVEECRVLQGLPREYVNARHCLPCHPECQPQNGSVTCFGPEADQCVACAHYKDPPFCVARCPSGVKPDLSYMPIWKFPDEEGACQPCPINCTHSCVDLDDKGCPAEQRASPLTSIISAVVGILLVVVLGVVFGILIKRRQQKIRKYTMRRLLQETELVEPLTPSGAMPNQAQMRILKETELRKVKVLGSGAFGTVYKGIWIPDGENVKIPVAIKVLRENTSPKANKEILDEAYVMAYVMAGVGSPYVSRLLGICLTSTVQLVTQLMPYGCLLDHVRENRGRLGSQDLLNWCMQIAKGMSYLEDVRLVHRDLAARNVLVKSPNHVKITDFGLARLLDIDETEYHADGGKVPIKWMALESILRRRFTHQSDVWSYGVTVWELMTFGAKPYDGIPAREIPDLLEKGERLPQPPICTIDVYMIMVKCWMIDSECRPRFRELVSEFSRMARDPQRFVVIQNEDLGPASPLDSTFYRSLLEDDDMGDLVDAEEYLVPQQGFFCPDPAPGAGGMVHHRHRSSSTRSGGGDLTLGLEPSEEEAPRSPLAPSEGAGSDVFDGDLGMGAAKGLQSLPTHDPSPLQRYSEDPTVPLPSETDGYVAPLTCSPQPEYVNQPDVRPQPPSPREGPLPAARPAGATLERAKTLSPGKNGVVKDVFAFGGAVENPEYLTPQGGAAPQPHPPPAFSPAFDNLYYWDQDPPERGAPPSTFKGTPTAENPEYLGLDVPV

| Structure (SMILES) | IC50 ([1]; read-out: Assay 1 IC50) | IC50 (ErbB2 WT) | IC50 (EGFR) | IC50 [2] | IC50 (EGFR wild type (EGFR WT)) | IC50 ([1]; Assay 1 IC50 (nM)) |
| --- | --- | --- | --- | --- | --- | --- |
| N#CC[C@@H]1CCN(c2ncc3ncnc(Nc4ccc(Oc5ccn6ncnc6c5)c(Cl)c4)c3n2)C1 [Example 416] | 11.3 nM | 21.5 nM | 2240 nM | 27.1 nM | ≥ 5000 nM | – |
| Cc1cc(Nc2ncnc3cnc(N4CCN5CCOC[C@H]5C4)nc23)ccc1Oc1ccn2ncnc2c1 [Example 417] | 31.4 nM | 62.1 nM | 6860 nM | 62.6 nM | ≥ 5000 nM | – |
| CN(CC1(O)CCC1)c1ncc2ncnc(Nc3ccc(Oc4ccn5ncnc5c4)c(Cl)c3)c2n1 [Example 329] | 19.8 nM | 37.7 nM | 5060 nM | 85.2 nM | ≥ 5000 nM | – |
| Cc1cc(Nc2ncnc3cnc(N4CCC4)nc23)ccc1Oc1ccc2scnc2c1 [Example 44, 6-(azetidin-1-yl)-N-(4-(benzo[d]thiazol-5-yloxy)-3-methylphenyl)pyrimido[5,4-d]pyrimidin-4-amine 2,2,2-trifluoroacetate] | 103 nM | 315 nM | 3310 nM | 70.6 nM | ≥ 5000 nM | – |
| O[C@@H]1C[C@@H]2C[C@H]1CN2c1ncc2ncnc(Nc3ccc(Oc4ccn5ncnc5c4)c(Cl)c3)c2n1 [Example 333] | 11.9 nM | 23.2 nM | 2230 nM | 82.1 nM | ≥ 5000 nM | – |
| Cc1cc(Nc2ncnc3cnc(N(C)CC(C)(C)O)nc23)c(F)cc1Oc1ccc2c(c1)ncn2C [Example 491] | 27.8 nM | 36.9 nM | ≥ 10000 nM | 78.6 nM | ≥ 5000 nM | – |
| Cc1cc(Nc2ncnc3cnc(O[C@H]4CCN(C)C[C@@H]4F)nc23)ccc1Oc1ccc2c(c1)ncn2C [Example 288] | 79.8 nM | 262 nM | ≥ 10000 nM | 94 nM | ≥ 5000 nM | – |
| FC(F)O[C@@H]1CCN(c2ncc3ncnc(Nc4ccc(Oc5ccn6ncnc6c5)c(Cl)c4)c3n2)C1 [Example 354] | 27.6 nM | 29 nM | ≥ 10000 nM | 72.2 nM | ≥ 5000 nM | – |
| OC1(CNc2ncc3ncnc(Nc4ccc(Oc5ccn6ncnc6c5)c(Cl)c4)c3n2)COC1 [Example 326] | 14.4 nM | 32.6 nM | 2340 nM | 32.1 nM | ≥ 5000 nM | – |
| CN(CCC(C)(C)O)c1ncc2ncnc(Nc3ccc(Oc4ccc5c(c4)ncn5C)c(Cl)c3)c2n1 [Example 479] | 26.5 nM | 24.4 nM | 2210 nM | 12.9 nM | ≥ 5000 nM | – |
| N#C[C@H]1CCN(c2ncc3ncnc(Nc4ccc(Oc5ccn6ncnc6c5)c(Cl)c4)c3n2)C1 [Example 367] | 16.5 nM | 64.7 nM | ≥ 10000 nM | 264 nM | ≥ 5000 nM | – |
| O[C@H]1[C@@H]2C[C@H]1CN(c1ncc3ncnc(Nc4ccc(Oc5ccn6ncnc6c5)c(Cl)c4)c3n1)C2 [Example 336] | 54 nM | 130 nM | ≥ 10000 nM | 2260 nM | ≥ 5000 nM | – |
| Cc1cc(Nc2ncnc3cnc(N4CC(F)(F)C4)nc23)ccc1Oc1ccc2c(c1)ncn2C [Example 38, 6-(3,3-difluoroazetidin-1-yl)-N-(3-methyl-4-((1-methyl-1H-benzo[d]imidazol-5-yl)oxy)phenyl)pyrimido[5,4-d]pyrimidin-4-amine] | 183 nM | 403 nM | ≥ 10000 nM | 65.1 nM | ≥ 5000 nM | – |
| Cc1cc(Nc2ncnc3cnc(N(C)[C@H]4CCCOC4)nc23)ccc1Oc1ccn2ncnc2c1 [Example 349] | 18.9 nM | 24 nM | 1290 nM | 116 nM | ≥ 5000 nM | – |
| COC[C@@H](C)Nc1ncc2ncnc(Nc3ccc(Oc4ccc5c(c4)ncn5C)c(C)c3)c2n1 [Example 61, (R)—N2-(1-methoxypropan-2-yl)-N8-(3-methyl-4-((1-methyl-1H-benzo[d]imidazol-5-yl)oxy)phenyl)pyrimido[5,4-d]pyrimidine-2,8-diamine] | 36.9 nM | 107 nM | ≥ 10000 nM | 49.5 nM | ≥ 5000 nM | – |
| Cc1cc(Nc2ncnc3cnc(N4CCN5C(=O)COC[C@H]5C4)nc23)ccc1Oc1ccc2c(c1)ncn2C [Example 346] | 39.5 nM | 60.4 nM | ≥ 10000 nM | 20.3 nM | ≥ 5000 nM | – |
| CN(c1ncc2ncnc(Nc3ccc(Oc4ccc5c(c4)ncn5C)c(Cl)c3)c2n1)[C@H]1CCOC1 [Example 117, (S)—N8-(3-chloro-4-((1-methyl-1H-benzo[d]imidazol-5-yl)oxy)phenyl)-N2-methyl-N2-(tetrahydrofuran-3-yl)pyrimido[5,4-d]pyrimidine-2,8-diamine] | 46.7 nM | 93.3 nM | ≥ 10000 nM | 8.3 nM | ≥ 5000 nM | – |
| Cc1c(Oc2ccc3c(c2)ncn3C)ccc(Nc2ncnc3cnc(N4CC[C@@H](O)C4)nc23)c1F [Example 392] | 16.6 nM | 14.6 nM | ≥ 10000 nM | 79.9 nM | ≥ 5000 nM | – |
| C[C@@H]1CN(c2ncc3ncnc(Nc4ccc(Oc5ccc6c(c5)ncn6C)c(Cl)c4)c3n2)CCO1 [Example 452] | 47.6 nM | 115 nM | ≥ 10000 nM | 20.2 nM | ≥ 5000 nM | – |
| Cc1cc(Nc2ncnc3cnc(N(C)CC(F)F)nc23)ccc1Oc1ccn2ncnc2c1 [Example 372] | 15.1 nM | 70.7 nM | 7310 nM | 153 nM | ≥ 5000 nM | – |
| Cc1cc(Nc2ncnc3cnc(N4CC5CC(C4)O5)nc23)ccc1Oc1ccn2ncnc2c1 [Example 135, N-(4-([1,2,4]triazolo[1,5-a]pyridin-7-yloxy)-3-methylphenyl)-6-(6-oxa-3-azabicyclo[3.1.1]heptan-3-yl)pyrimido[5,4-d]pyrimidin-4-amine] | 26.2 nM | 45.7 nM | ≥ 10000 nM | 514 nM | ≥ 5000 nM | – |
| CC1(C)CN(c2ncc3ncnc(Nc4ccc(Oc5ccn6ncnc6c5)c(Cl)c4)c3n2)CC[C@@H]1O [Example 337] | 17 nM | 13.3 nM | 2490 nM | 70.3 nM | ≥ 5000 nM | – |
| CON1CCN(c2ncc3ncnc(Nc4ccc(Oc5ccc6c(c5)ncn6C)c(C)c4F)c3n2)CC1 [Example 142, N-(2-fluoro-3-methyl-4-((1-methyl-1H-benzo[d]imidazol-5-yl)oxy)phenyl)-6-(4-methoxypiperazin-1-yl)pyrimido[5,4-d]pyrimidin-4-amine 2,2,2-trifluoroacetate] | – | 50.7 nM | ≥ 10000 nM | 72.7 nM | ≥ 5000 nM | 24.2 nM |
| COC[C@H]1CCN1c1ncc2ncnc(Nc3ccc(Oc4ccn5ncnc5c4)c(Cl)c3)c2n1 [Example 321] | 12.9 nM | 65.7 nM | 4340 nM | 72 nM | ≥ 5000 nM | – |
| Cc1cc(Nc2ncnc3cnc(N4CCCO4)nc23)ccc1Oc1cc(F)c2c(c1)ncn2C [Example 155, N-(4-((7-fluoro-1-methyl-1H-benzo[d]imidazol-5-yl)oxy)-3-methylphenyl)-6-(isoxazolidin-2-yl)pyrimido[5,4-d]pyrimidin-4-amine] | 22.5 nM | 52.9 nM | 4280 nM | 5.5 nM | ≥ 5000 nM | – |
| Cc1cc(Nc2ncnc3cnc(N4CCN[C@H](C)C4)nc23)ccc1Oc1ccn2ncnc2c1 [Example 352] | 37.5 nM | 131 nM | ≥ 10000 nM | 147 nM | ≥ 5000 nM | – |
| Cc1cc(Nc2ncnc3cnc(N4C[C@@H]5C[C@H]4C[C@H]5O)nc23)ccc1Oc1ccc2c(c1)ncn2C [Example 471] | 7.1 nM | 49.4 nM | ≥ 10000 nM | 42.5 nM | ≥ 5000 nM | – |
| Cc1c(Oc2ccn3ncnc3c2)ccc(Nc2ncnc3cnc(N(C)CC4(O)CC4)nc23)c1F [Example 314] | 29.8 nM | 88.1 nM | 6080 nM | 2020 nM | ≥ 5000 nM | – |
